How the values were obtained:
[1] = target: T1, CysG^ΔN16 (Kitasatospora cystarginea, UniProt A0A1W6R556); assay: HPLC-MS turnover assay, semi-quantitative; format: biochemical; conditions: 1 mM substrate, 1 mM SAM, 5 μM enzyme, 20 mM divalent metal ion, 50 mM Tris-HCl, 30 °C, 3 h
T1 construct: N-terminal truncation lacking the first 16 residues, His6-SUMO tag removed, E. coli BL21(DE3); electron density for residues 17-229

[2] = target: T2, CysG^fl (Kitasatospora cystarginea, UniProt A0A1W6R556); assay: HPLC-MS turnover assay, semi-quantitative; format: biochemical; conditions: 1 mM substrate, 1 mM SAM, 5 μM enzyme, 20 mM Ca2+, 50 mM Tris-HCl, 30 °C, 3 h
T2 construct: full length, codon-optimised gene, N-terminal His6-SUMO tag removed, E. coli BL21(DE3)

[3] = target: T3, BelI (Streptomyces sp., UniProt A0A1W6R583); assay: HPLC-MS turnover assay, semi-quantitative; format: biochemical; conditions: 1 mM substrate, 1 mM SAM, 5 μM enzyme, 20 mM Ca2+, 50 mM Tris-HCl, 30 °C, 3 h
T3 construct: full length, codon-optimised gene, N-terminal His6-SUMO tag removed, E. coli BL21(DE3); electron density for residues 17-228

[4] = target: T1, CysG^ΔN16; assay: X-ray crystal structure, […] Å; format: binding; conditions: with Ca2+ bound at His122-His123-Asp191; methyl donor site
[5] = target: T4, CysG^ΔN16 (Kitasatospora cystarginea, UniProt A0A1W6R556, R22K); assay: X-ray crystal structure; format: binding; conditions: methyl donor site
T4 construct: N-terminal truncation lacking the first 16 residues, His6-SUMO tag removed, E. coli BL21(DE3); electron density for residues 17-229

In the case of `CC(C)[C@H](C(=O)O)[C@@H](O)C(=O)O` [3IPM], the “HPLC-MS turnover assay, semi-quantitative” value (from here on “HPLC-MS turnover assay”) [1] is reported as “N-terminally truncated CysG^ΔN16 variant was active with metal ions available” and the “HPLC-MS turnover assay” value [2] is reported as “The assay was started by the addition of 3IPM for CysG and 3SBM for BelI”.

For `CCC(C)C(C(=O)O)C(O)C(=O)O` (centres unmarked) [3SBM], the “HPLC-MS turnover assay” value [3] was “The assay was started by the addition of 3IPM for CysG and 3SBM for BelI”.

With `Nc1ncnc2c1ncn2[C@@H]1O[C@H](CSCC[C@H](N)C(=O)O)[C@@H](O)[C@H]1O` [SAH] the “X-ray crystal structure, 1.5 Å” value [4] was “crystal structures of CysG^ΔN16 in complex with S-adenosylhomocysteine (SAH)”.

For `C[S+](CC[C@H](N)C(=O)O)C[C@H]1O[C@@H](n2cnc3c(N)ncnc32)[C@H](O)[C@@H]1O` (some centres unmarked) [SAM], the X-ray crystal structure [5] was “CysG^ΔN16-R22K variant (PDB ID: 9FCY) maintains SAM coordination”.

Reference: paper PMC11408123, “Deciphering the SAM- and metal-dependent mechanism of O-methyltransferases in cystargolide and belactosin biosynthesis: A structure–activity relationship study” (The Journal of Biological Chemistry, 2024)
